Experimental data reported in publication PMC8596998, “The Introduction of a Cysteine Residue Modulates The Mechanical Properties of Aromatic‐Based Solid Aggregates and Self‐Supporting Hydrogels” (Chemistry (Weinheim an Der Bergstrasse, Germany), 2021).
Values after ≈ are worked out from the molar mass of the structure shown. Square brackets hold non-standard residues; d marks the D form. Ends that are not written are not given here. Peptide text beside a SMILES is read from it. AEEA = NCCOCCOCC(=O)O

What was measured:
[1] = Water solubility of peptides; format: physicochemical
Excerpt: Both the peptide derivatives were synthetized using solid phase peptide synthesis protocols (SPPS) with Fmoc/OtBu strategy. After their purification by RP‐HPLC chromatography, peptides were characterized by ESI mass spectrometry (see Figure S8). The logP values, estimated using the ACD Lab ChemSketch software, predict the intrinsic water solubility of peptides. […] A diametric behaviour was noted using the organic solvent 1,1,1,3,3,3‐hexafluoro‐isopropan‐2‐ol (HFIP).[[11a], [12]] Indeed, in HFIP the peptide FYFCFYF is highly soluble (up to 200 mg/mL), whereas PEG8‐FYFCFYF is moderately soluble (up to 5 mg/mL). According to their different solubility, peptide solutions were prepared using two approaches: PEG8‐FYFCFYF solutions were prepared by a direct dissolution of the lyophilized powder in water, whereas FYFCFYF ones were obtained by dilution in water of a HFIP stock solution (100 mg/mL). […] Peptide concentration was then analytically quantified using UV‐Vis spectroscopy. Preliminarily, we evaluated the capability of both the peptides to aggregate in solution (at 2.0 mg/mL) using the Dynamic Light Scattering (DLS) technique. […] The formation of nanoarchitectures was further investigated by fluorescence spectroscopy. Despite the presence of four Phe residues in the peptides, their self‐assembling propensity cannot be evaluated by simply considering the Phe excimer formation. […]

[2] = Gelification, inverted test tube (CGC, gelation time, shelf stability, syneresis); format: physicochemical
Excerpt: Interconnected fibers network can generate self‐supporting hydrogels as a consequence of additional physical cross‐linking phenomena or chemical modifications. In the specific case of peptide‐based HGs, these materials are formed by further entanglement of supramolecular fibrillary structures, which can be induced by increasing the total sample concentration, and as a consequence, the number of fibers and their mutual contacts.[21] During the preparation of FYFCFYF solutions, we observed a viscosity degree that increases proportionally to the peptide concentration. […] As reported in Figure S12, the critical gelation concentration (CGC) for FYFCFYF can be identified in the range 0.5 wt%<CGC<1.0 wt%. […] However, the characterization of others analogues of (FY)3 and PEG8‐(FY)3 [eg. (F‐Dopa)3 and (Nal‐Dopa)3 and their PEGylated versions PEG8‐(F‐Dopa)3 and PEG8‐(Nal‐Dopa)3] highlighted a diametrically opposed behavior respect to (FY)3.[10] All these evidences point out the importance of the hydrophilic/hydrophobic balance in the peptide sequence in the gelification process. Moreover, it is possible that the Cys side chain plays a role in the confinement and retention of water molecules in the gel. The stability of the FYFCFYF hydrogel (macroscopically evaluated in terms of homogeneity, opacity and reproducibility) and its capability to hold water (as difference between the weight of the matrix before and after an incubation in water overnight at room temperature) were evaluated by the swelling value q (See Equation (1)).[22] […] The shelf stability was also evaluated via inverted test tube. […]
The formation of an additional chemical network affects also on the CGC and swelling features. […] The efficiency of oxidation procedure was evaluated using the well‐assessed Ellman's test.[24] Ellman's reagent (5,5’‐dithio‐bis‐(2‐nitrobenzoic acid)) also known as DTNB, is a chromogenic compound used to quantify free sulfhydryl groups in solution. […] Thus, free thiol concentration can be indirectly determined by TNB UV‐Vis absorption at 412 nm. […]

solubility [1] | shelf stability ([2]; hydrogel 1.0 wt%) | shelf stability ([2]; hydrogel 1.5 wt%) | shelf stability ([2]; hydrogel 2.0 wt%) | Compound
~10000 µg/mL (≈ 6.19 mM) | – | – | – | NCCOCCOCC(=O)NCCOCCOCC(=O)NCCOCCOCC(=O)NCCOCCOCC(=O)N[C@@H](Cc1ccccc1)C(=O)N[C@@H](Cc1ccc(O)cc1)C(=O)N[C@@H](Cc1ccccc1)C(=O)N[C@@H](CS)C(=O)N[C@@H](Cc1ccccc1)C(=O)N[C@@H](Cc1ccc(O)cc1)C(=O)N[C@@H](Cc1ccccc1)C(N)=O [PEG8‐FYFCFYF] (H-[AEEA][AEEA][AEEA][AEEA]FYFCFYF-NH2)
240 µg/mL | 20 days | up to 40 days | up to 65 days | FYFCFYF-NH2 [FYFCFYF]
